Reference: patent publication US10117864B2, “Substituted N-bicyclo-2-aryl-quinolin-4-carboxamides and use thereof” (BAYER PHARMA AKTIENGESELLSCHAFT, priority 2015, dated 2018)

What follows are molecules tested against human FP receptor (Homo sapiens (Human), UniProt P43088) (assay: In vitro test of inhibition of human FP receptor activity (PGF2α-induced calcium flux in FP-expressing CHEM1 cells)). Conditions: PGF2α-induced (3 nM) calcium flux, some as mean values from multiple independent determinations.
Type: cell-based
Description: • CRTH2 chemoattractant receptor-homologous molecule expressed on T helper type 2 cells • DMEM Dulbecco's modified Eagle's medium • DMSO dimethyl sulfoxide • DP PGD2 receptor • EC50 half-maximum effective concentration • Em emission • EP PGE2 receptor • Ex excitation • from Company (source) • FCS fetal calf serum • FP PGF2α receptor • HEPES 2-[4-(2-hydroxyethyl)piperazin-1-yl]ethanesulfonic acid • IC50 half-maximum inhibitory concentration • IP PGI2 receptor • MES 2-(N-morpholino)ethanesulfonic acid • Pen/Strep penicillin/streptomycin • PGD2 prostaglandin D2 • PGE2 prostaglandin E2 • PGF2α prostaglandin F2α • PGI2 prostaglandin I2 • TC tissue culture • TP thromboxane A2 receptor • Tris tris(hydroxymethyl)aminomethane • v/v volume to volume ratio (of a solution) • w/w weight to weight ratio (of a solution) B-1. In Vitro Test of Inhibition of Human FP Receptor Activity
For the characterization of test substances in respect of FP antagonism, PGF2α-induced calcium flux in FP-expressing CHEM1 cells (Millipore, HTS093C) was used.
Prior to the measurement, the medium is replaced by 30 μl of Fluo-8 AM loading buffer [calcium-free Tyrode (130 mM NaCl, 5 mM KCl, 20 mM HEPES, 1 mM MgCl2, 4.8 mM NaHCO3, pH 7.4), 2 mM CaCl2, 1× SmartBlock (from CANDOR Bioscience GmbH), 4.5 mM Probenecid, 5 μM Fluo-8 AM, 0.016% Pluronic®, 0.04% Brilliant black] and incubated at 37° C./5% CO2 for 30 minutes. […] 10 μl of the prediluted substance solution are added to the Fluo-8-laden cells and incubated at 37° C./5% CO2 for 10 minutes. The FP receptor is activated by adding 20 μl of 3 nM (final concentration) PGF2α in calcium-free Tyrode/2 mM CaCl2/0.04% Brilliant black, and the calcium flux is determined by measuring the fluorescence at ex. 470 nm/[…].
Table 1 below lists the IC50 values from this assay for individual working examples of the invention (some as mean values from multiple independent individual determinations): […]

human FP receptor, sequence (P43088 whole entry): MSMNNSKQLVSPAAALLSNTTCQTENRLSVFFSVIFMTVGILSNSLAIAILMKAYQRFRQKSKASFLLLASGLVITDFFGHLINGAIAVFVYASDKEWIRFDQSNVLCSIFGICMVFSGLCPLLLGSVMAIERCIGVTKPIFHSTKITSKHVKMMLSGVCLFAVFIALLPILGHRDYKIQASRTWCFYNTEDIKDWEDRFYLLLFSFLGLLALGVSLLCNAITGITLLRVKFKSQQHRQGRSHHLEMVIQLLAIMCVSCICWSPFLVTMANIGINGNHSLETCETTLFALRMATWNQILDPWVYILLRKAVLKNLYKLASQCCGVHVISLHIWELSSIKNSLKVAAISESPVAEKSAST

| IC50 | SMILES |
| --- | --- |
| 74 nM | CSc1c(-c2ccccc2)nc2ccc(Br)cc2c1C(=O)NC12CCC(C(=O)O)(CC1)CC2 [Example 27, 4-({[6-Bromo-3-(methylsulfanyl)-2-phenylquinolin-4-yl]carbonyl}amino)bicyclo[2.2.2]octane-1-carboxylic acid] |
| 220 nM | CCc1c(-c2ccccc2)nc2ccc(Br)cc2c1C(=O)NC12CCC(C(=O)O)(CC1)CC2 [Example 28, 4-{[(6-Bromo-3-ethyl-2-phenylquinolin-4-yl)carbonyl]amino}bicyclo[2.2.2]octane-1-carboxylic acid] |
| 51 nM | O=C(NC12CCC(C(=O)O)(CC1)CC2)c1c(C2CC2)c(-c2ccccc2)nc2ccc(Br)cc12 [Example 29, 4-{[(6-Bromo-3-cyclopropyl-2-phenylquinolin-4-yl)carbonyl]amino}bicyclo[2.2.2]octane-1-carboxylic acid] |
| 52 nM | O=C(NC12CCC(C(=O)O)(CC1)CC2)c1c(Cl)c(-c2ccccc2)nc2ccc(Br)cc12 [Example 30, 4-{[(6-Bromo-3-chloro-2-phenylquinolin-4-yl)carbonyl]amino}bicyclo[2.2.2]octane-1-carboxylic acid] |
| 351 nM | CCCc1c(-c2ccccc2)nc2ccc(Br)cc2c1C(=O)NC12CCC(C(=O)O)(CC1)CC2 [Example 31, 4-{[(6-Bromo-2-phenyl-3-propylquinolin-4-yl)carbonyl]amino}bicyclo[2.2.2]octane-1-carboxylic acid] |
| 22 nM | O=C(NC12CCC(C(=O)O)(CC1)CC2)c1c(Cl)c(-c2ccccc2)nc2ccc(I)cc12 [Example 32, 4-{[(3-Chloro-6-iodo-2-phenylquinolin-4-yl)carbonyl]amino}bicyclo[2.2.2]octane-1-carboxylic acid] |
| 51 nM | O=C(NC12CCC(C(=O)O)(CC1)CC2)c1c(C2CC2)c(-c2ccccc2)nc2ccc(I)cc12 [Example 33, 4-{[(3-Cyclopropyl-6-iodo-2-phenylquinolin-4-yl)carbonyl]amino}bicyclo[2.2.2]octane-1-carboxylic acid] |
| 505 nM | Cc1c(-c2ccccc2)nc2ccc(C(F)(F)F)cc2c1C(=O)NC12CCC(C(=O)O)(CC1)CC2 [Example 34, 4-({[3-Methyl-2-phenyl-6-(trifluoromethyl)quinolin-4-yl]carbonyl}amino)bicyclo[2.2.2]octane-1-carboxylic acid] |
| 430 nM | O=C(NC12CCC(C(=O)O)(CC1)CC2)c1c(O)c(-c2ccccc2)nc2ccc(Br)cc12 [Example 35, 4-{[(6-Bromo-3-hydroxy-2-phenylquinolin-4-yl)carbonyl]amino}bicyclo[2.2.2]octane-1-carboxylic acid] |
| 553 nM | Cc1c(-c2ccccc2)nc2ccc(Br)cc2c1C(=O)NC12CCC(C(N)=O)(CC1)CC2 [Example 36, 6-Bromo-N-(4-carbamoylbicyclo[2.2.2]oct-1-yl)-3-methyl-2-phenylquinoline-4-carboxamide] |
| 723 nM | Cc1c(-c2ccccc2)nc2ccc(Br)cc2c1C(=O)NC12CC(C(=O)O)(C1)C2 [Example 37, 3-{[(6-Bromo-3-methyl-2-phenylquinolin-4-yl)carbonyl]amino}bicyclo[1.1.1]pentane-1-carboxylic acid] |
| 1280 nM | Cc1c(-c2ccccc2)nc2ccc(I)cc2c1C(=O)NC12CCC(C(=O)O)(CC1)C2 [Example 38, 4-{[(6-Iodo-3-methyl-2-phenylquinolin-4-yl)carbonyl]amino}bicyclo [2.2.1]heptane-1-carboxylic acid] |
| 230 nM | Cc1c(-c2ccccc2)nc2ccc(Br)cc2c1C(=O)NC12CCCC(C(=O)O)(CC1)CC2 [Example 39, 5-{[(6-Bromo-3-methyl-2-phenylquinolin-4-yl)carbonyl]amino}bicyclo[3.2.2]nonane-1-carboxylic acid] |
| 195 nM | O=C(NC12CCCC(C(=O)O)(CC1)CC2)c1c(Cl)c(-c2ccccc2)nc2ccc(Br)cc12 [Example 40, 5-{[(6-Bromo-3-chloro-2-phenylquinolin-4-yl)carbonyl]amino}bicyclo[3.2.2]nonane-1-carboxylic acid] |
| 48 nM | O=C(NC12CCCC(C(=O)O)(CC1)CC2)c1c(Cl)c(-c2ccccc2)nc2ccc(I)cc12 [Example 41, 5-{[(3-Chloro-6-iodo-2-phenylquinolin-4-yl)carbonyl]amino}bicyclo[3.2.2]nonane-1-carboxylic acid] |
| 33 nM | O=C(NC12CCCC(C(=O)O)(CC1)CC2)c1c(C2CC2)c(-c2ccccc2)nc2ccc(I)cc12 [Example 42, 5-{[(3-Cyclopropyl-6-iodo-2-phenylquinolin-4-yl)carbonyl]amino}bicyclo[3.2.2]nonane-1-carboxylic acid] |
| 198 nM | Cc1c(-c2ccccc2)nc2ccc(Br)cc2c1C(=O)NC12C3C4C1C1C2C3C41C(=O)O (stereo not drawn) [Example 43, 4-{[(6-Bromo-3-methyl-2-phenylquinolin-4-yl)carbonyl]amino}cubane-1-carboxylic acid] |
| 73 nM | Cc1c(-c2ccccc2)nc2ccc(I)cc2c1C(=O)NC12C3C4C1C1C2C3C41C(=O)O (stereo not drawn) [Example 44, 4-{[(6-Iodo-3-methyl-2-phenylquinolin-4-yl)carbonyl]amino}cubane-1-carboxylic acid] |
| 161 nM | O=C(NC12C3C4C1C1C2C3C41C(=O)O)c1c(Cl)c(-c2ccccc2)nc2ccc(Br)cc12 (stereo not drawn) [Example 45, 4-{[(6-Bromo-3-chloro-2-phenylquinolin-4-yl)carbonyl]amino}cubane-1-carboxylic acid] |
| 58 nM | Cc1c(-c2cc(Br)cs2)nc2ccc(Br)cc2c1C(=O)NC12CCC(C(=O)O)(CC1)CC2 [Example 52, 4-({[6-Bromo-2-(4-bromo-2-thienyl)-3-methylquinolin-4-yl]carbonyl}amino)bicyclo[2.2.2]octane-1-carboxylic acid] |
| 235 nM | Cc1ccc(-c2nc3ccc(Br)cc3c(C(=O)NC34CCC(C(=O)O)(CC3)CC4)c2C)s1 [Example 53, 4-({[6-Bromo-3-methyl-2-(5-methyl-2-thienyl)quinolin-4-yl]carbonyl}amino)bicyclo[2.2.2]octane-1-carboxylic acid] |
| 240 nM | Cc1c(-c2ccc(Cl)s2)nc2ccc(Br)cc2c1C(=O)NC12CCC(C(=O)O)(CC1)CC2 [Example 54, 4-({[6-Bromo-2-(5-chloro-2-thienyl)-3-methylquinolin-4-yl]carbonyl}amino)bicyclo[2.2.2]octane-1-carboxylic acid] |
| 383 nM | Cc1c(-c2ccc(Br)s2)nc2ccc(Br)cc2c1C(=O)NC12CCC(C(=O)O)(CC1)CC2 [Example 55, 4-({[6-Bromo-2-(5-bromo-2-thienyl)-3-methylquinolin-4-yl]carbonyl}amino)bicyclo[2.2.2]octane-1-carboxylic acid] |
| 148 nM | C#Cc1ccc2nc(-c3ccccc3)c(C)c(C(=O)NC34CCC(C(=O)O)(CC3)CC4)c2c1 [Example 56, 4-{[(6-Ethynyl-3-methyl-2-phenylquinolin-4-yl)carbonyl]amino}bicyclo[2.2.2]octane-1-carboxylic acid] |
| 637 nM | Cc1c(-c2ccccc2)nc2ccc(Br)cc2c1C(=O)NC12CCC(C(=O)O)(CC1)C(=O)C2 [Example 57, 4-{[(6-Bromo-3-methyl-2-phenylquinolin-4-yl)carbonyl]amino}-2-oxobicyclo[2.2.2]octane-1-carboxylic acid] |
| 668 nM | Cc1c(-c2ccccc2)nc2ccc(Br)cc2c1C(=O)NC12CCC(C(=O)O)(CC1)C(F)(F)C2 [Example 58, 4-{[(6-Bromo-3-methyl-2-phenylquinolin-4-yl)carbonyl]amino}-2,2-difluorobicyclo[2.2.2]octane-1-carboxylic acid] |
| 82 nM | Cc1c(-c2ccccc2)nc2ccc(Br)cc2c1C(=O)NC12CCC(C(=O)O)(CC1=O)CC2=O [Example 63, 4-{[(6-Bromo-3-methyl-2-phenylquinolin-4-yl)carbonyl]amino}-3,5-dioxobicyclo [2.2.2]octane-1-carboxylic acid] |
| 762 nM | Cc1c(-c2ccccc2)nc2ccc(I)cc2c1C(=O)NC12CCC(C(=O)O)(CC1)OC2 [Example 64, 4-{[(6-Iodo-3-methyl-2-phenylquinolin-4-yl)carbonyl]amino}-2-oxabicyclo [2.2.2]octane-1-carboxylic acid] |
| 824 nM | Cc1c(-c2ccccc2)nc2ccc(Br)cc2c1C(=O)N[C@@H]1[C@@H]2CC[C@H]1C[C@H](C(=O)O)C2 [Example 65, (3-exo,8-anti)-8-{[(6-Bromo-3-methyl-2-phenylquinolin-4-yl)carbonyl]amino}bicyclo[3.2.1]octane-3-carboxylic acid] |
| 762 nM | N#Cc1c(-c2ccccc2)nc2ccc(Br)cc2c1C(=O)NC12CCC(C(=O)O)(CC1)CC2 [Example 66, 4-{[(6-Bromo-3-cyano-2-phenylquinolin-4-yl)carbonyl]amino}bicyclo[2.2.2]octane-1-carboxylic acid] |
